One substance from US9603859B2, “Methods and products for increasing the rate of healing of tissue wounds” (BRIGHAM YOUNG UNIVERSITY, priority 2011, dated 2017) can be followed below.

Experiment [1] relates to Mixed-species biofilms of S. aureus and P. aeruginosa. Nature of the experiment: Mixed-species biofilm susceptibility, live/dead staining. It counts as cell-based. The note with it: biofilms grown in collagen-coated plates for 24 hours.
The test system of experiment [2] is HaCaT migration. In words: HaCaT migration by ECIS (2D wound healing). Type of experiment: cell-based, human. The protocol: Standard microdilution methods were used to determine minimum inhibitory concentration (MIC) and minimum bactericidal concentration (MBC) of test agents (peptides and peptide-mimics) against drug resistant Staphylococcus. aureus (TCH1516) and Pseudomonas. aeruginosa (PAO1). […] Cytotoxicity of test agents to human immortalized keratinocytes (HaCaTs) was assessed using 3-[4,5-dimethylthiazol-2-yl]-2,5-diphenyl tetrazolium bromide (MTT). Promotion of HaCaT migration by test agents was tested using electric cell-substrate impedance sensing (ECIS®), which induced 2D wound healing. The ability of test agents to stimulate angiogenesis was evaluated using matrigel-induced tube formation of human vein endothelial cells (HUVECs).

Take “LL-37: a human peptide and positive control (LLGDFFRKSKEKIGKEFKRIVQRIKDFLRNLVPRTES; Antibacterial peptide LL-37; UniProt P49913 134-170, looked up)”: the anti-biofilm activity result in experiment [1] is reported as “showed anti-biofilm activity”. In experiment [2], the “induction of wound healing” value is “induced wound healing”.
